The values that follow come from article PMC7311409, “Crystal structures of SAMHD1 inhibitor complexes reveal the mechanism of water-mediated dNTP hydrolysis” (Nature Communications, 2020).

Read-outs that look alike come from different tables or passages of the source.

Experiment [1] concerns the target T1, SAMHD1 (Homo sapiens, UniProt Q9Y3Z3). The experiment can be described thus: X-ray co-crystal structure; competitive inhibition in coupled enzyme assay. Format: binding. Also noted: residues 109-626 (crystal).
Target sequence in this assay (Q9Y3Z3 109-626): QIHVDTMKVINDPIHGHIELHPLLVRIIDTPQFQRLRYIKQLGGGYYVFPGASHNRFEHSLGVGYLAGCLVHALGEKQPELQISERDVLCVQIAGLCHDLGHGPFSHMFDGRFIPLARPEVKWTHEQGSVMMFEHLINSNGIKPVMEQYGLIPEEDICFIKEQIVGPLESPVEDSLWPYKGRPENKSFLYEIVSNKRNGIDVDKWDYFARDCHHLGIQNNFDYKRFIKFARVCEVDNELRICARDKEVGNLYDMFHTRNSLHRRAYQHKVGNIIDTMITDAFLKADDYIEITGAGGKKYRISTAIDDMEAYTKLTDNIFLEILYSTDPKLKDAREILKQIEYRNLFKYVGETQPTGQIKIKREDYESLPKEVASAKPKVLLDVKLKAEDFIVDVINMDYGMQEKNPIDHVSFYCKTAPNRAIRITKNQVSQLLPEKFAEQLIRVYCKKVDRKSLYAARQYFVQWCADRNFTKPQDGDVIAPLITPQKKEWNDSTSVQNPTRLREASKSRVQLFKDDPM
For experiment [2], the target named is T1, SAMHD1. Also noted: wt-SAMHD1(1-626); MDCC-PBP phosphate sensor coupled SAMHD1-Ppx1 assay, competitive inhibition of TTP hydrolysis, global fit. The note with it: GTP-activated, substrate TTP 0.1-1 mM, pH 8.0, 25 °C; inhibitor. The protocol:
To obtain quantitative kinetic parameters for substrate hydrolysis (KM and kcat) and for inhibition by dNMPNPP analogues (Ki) a coupled assay was employed utilising the biosensor MDCC-PBP[90],[91] to measure phosphate release from combined SAMHD1 triphosphohydrolase and S. cerevisiae Ppx1 exopolyphosphatase activity. In a typical experiment, solutions containing wt-SAMHD1(1-626), Ppx1, MDCC-PBP and GTP were incubated for 5 min in assay buffer (20 mM Tris pH 8.0, 150 mM NaCl, 5 mM MgCl2 and 2 mM TCEP) at 25 °C before the reaction was initiated by the addition of nucleotides and nucleotide analogues. The final concentrations were 0.2 µM SAMHD1, 0.01 µM Ppx1, 40 µM MDCC-PBP, 0.2 mM GTP and varying concentrations of dNTP substrates and analogues. The fluorescence intensity was recorded at 430 nm excitation and 465 nm emission over a period of 10–30 min in a Clariostar multiwell plate reader (BMG Labtech). […] Apparent dissociation constants for substrate binding (KM) and catalytic constants (kcat) were then determined by non-linear least-squares fitting using a hyperbolic function in the software package Prism 7 (Graphpad). […] The fitting was performed with a fixed value of KM for GTP-activated TTP hydrolysis, determined previously[35] and only kcat and Ki were allowed to vary. […]
Target sequence in this assay (Q9Y3Z3 whole entry, the tested form may be a part): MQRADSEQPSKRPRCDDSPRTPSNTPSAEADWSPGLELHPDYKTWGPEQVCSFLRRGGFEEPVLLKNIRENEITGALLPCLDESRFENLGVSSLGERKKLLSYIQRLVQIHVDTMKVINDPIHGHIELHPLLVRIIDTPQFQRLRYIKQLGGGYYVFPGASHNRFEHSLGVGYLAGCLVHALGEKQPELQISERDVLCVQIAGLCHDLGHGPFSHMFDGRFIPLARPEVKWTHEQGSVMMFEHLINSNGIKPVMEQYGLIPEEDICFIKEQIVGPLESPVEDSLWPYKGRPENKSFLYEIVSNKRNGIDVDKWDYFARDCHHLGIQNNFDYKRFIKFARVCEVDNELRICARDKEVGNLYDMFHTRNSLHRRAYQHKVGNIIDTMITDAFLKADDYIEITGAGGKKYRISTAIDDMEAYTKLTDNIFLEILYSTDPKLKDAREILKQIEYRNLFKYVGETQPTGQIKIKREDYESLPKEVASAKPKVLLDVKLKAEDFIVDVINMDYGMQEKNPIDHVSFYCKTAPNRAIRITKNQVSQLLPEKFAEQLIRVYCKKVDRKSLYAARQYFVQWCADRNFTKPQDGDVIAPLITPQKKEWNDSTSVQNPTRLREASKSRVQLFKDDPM

Experiment [3] deals with T2, SAMHD1 (Homo sapiens, UniProt Q9Y3Z3, D137N).
T2 construct: residues 109-626
T2 sequence (Q9Y3Z3 109-626 D137N): as the sequence (Q9Y3Z3 109-626) above, with D29N counted along it
The experiment can be described thus: X-ray co-crystal structure; activation of dNTP hydrolysis. Type of experiment: binding.

Experiment [4] deals with T1, SAMHD1. The experiment can be described thus: MDCC-PBP/Ppx1 coupled triphosphohydrolase assay, competitive inhibition of TTP hydrolysis, global fit; SEC-MALLS tetramerisation. Format: biochemical. Also noted: wt-SAMHD1(1-626).
Target sequence in this assay (Q9Y3Z3 whole entry, the tested form may be a part): as the sequence (Q9Y3Z3 whole entry, the tested form may be a part) above
Experiment [5] has as its target T2, SAMHD1. Briefly: X-ray co-crystal structure. Type of experiment: binding.

With `Cc1cn([C@H]2C[C@H](O)[C@@H](COP(=O)(O)NP(=O)(O)OP(=O)(O)O)O2)c(=O)[nH]c1=O` [TMPNPP], the X-ray co-crystal structure entry on SAMHD1 [1] was “(ii) GTP (AL1), dATP (AL2) and TMPNPP (active site)”. The affinity on SAMHD1 [2] corresponds to a Ki of 370 ± 20 nM.
`O=c1[nH]c(=O)c2ncn([C@@H]3O[C@H](COP(=O)(O)OP(=O)(O)OP(=O)(O)O)[C@@H](O)[C@H]3O)c2[nH]1` [XTP]: the “X-ray co-crystal structure; activation of dNTP hydrolysis” value at SAMHD1 [3] was “D137N-SAMHD1 is activated by xanthosine-5′-triphosphate (XTP) rather than GTP through AL1-binding”.
Consider `Nc1ncnc2c1ncn2[C@H]1C[C@H](O)[C@@H](COP(=O)(O)NP(=O)(O)OP(=O)(O)O)O1` [dAMPNPP], for which, at SAMHD1 [4], the Ki (usually the dissociation constant of the complex between target and ligand, obtained from inhibition or displacement) is 780 nM.
Turning to `Nc1ccn([C@H]2C[C@H](O)[C@@H](COP(=O)(O)NP(=O)(O)OP(=O)(O)O)O2)c(=O)n1` [dCMPNPP], on SAMHD1 [2], the Ki came to 73 ± 3 nM.
For `Nc1nc2c(ncn2[C@H]2C[C@H](O)[C@@H](COP(=O)(O)NP(=O)(O)OP(=O)(O)O)O2)c(=O)[nH]1` [dGMPNPP], on SAMHD1 [5], the X-ray co-crystal structure result was “(ii) XTP (AL1) and dGMPNPP (AL2 and active site)”. The molecule also returned a Ki at SAMHD1 [4] of 52 nM.
